Measurements published in ChEMBL document CHEMBL2331341, “Determination of the α-conotoxin Vc1.1 binding site on the α9α10 nicotinic acetylcholine receptor” (J Med Chem, 2013).
Positions of bridges follow the written chain, without caps; N, C: chain ends. Residues, ends and D or L forms follow the SMILES beside them.

Tests used:
[1] = Selectivity ratio of IC50 for human alpha9 rat alpha10 nAChR to IC50 for rat alpha9/alpha10 nAChR
[2] = Inhibition of human alpha9 rat alpha10 nAChR expressed in Xenopus oocytes assessed as inhibition of acetylcholine-induced currents after 300 secs by two-electrode voltage clamp assay; type: cell-based; conditions: Oocyte
[3] = target: Nicotinic acetylcholine receptor alpha9/alpha10 (Rattus norvegicus, UniProt P43144+Q9JLB5); assay: Inhibition of rat alpha9/alpha10 nAChR expressed in Xenopus oocytes assessed as inhibition of acetylcholine-induced currents after 300 secs by two-electrode voltage clamp assay; type: cell-based, Oocyte
Nicotinic acetylcholine receptor alpha9/alpha10, sequence (P43144 whole entry): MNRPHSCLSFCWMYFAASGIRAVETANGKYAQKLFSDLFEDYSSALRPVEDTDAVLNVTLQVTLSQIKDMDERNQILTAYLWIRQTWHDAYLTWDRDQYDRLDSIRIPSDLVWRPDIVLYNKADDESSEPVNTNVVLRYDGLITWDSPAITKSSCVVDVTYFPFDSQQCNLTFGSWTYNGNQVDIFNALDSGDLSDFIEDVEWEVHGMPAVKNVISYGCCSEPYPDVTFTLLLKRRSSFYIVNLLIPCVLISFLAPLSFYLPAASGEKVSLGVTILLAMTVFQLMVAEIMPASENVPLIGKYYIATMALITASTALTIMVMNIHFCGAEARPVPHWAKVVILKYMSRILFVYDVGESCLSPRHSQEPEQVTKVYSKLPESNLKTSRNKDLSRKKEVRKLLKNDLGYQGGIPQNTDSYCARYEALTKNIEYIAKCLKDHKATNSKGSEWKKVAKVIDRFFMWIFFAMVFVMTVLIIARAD
Nicotinic acetylcholine receptor alpha9/alpha10, sequence (Q9JLB5 whole entry): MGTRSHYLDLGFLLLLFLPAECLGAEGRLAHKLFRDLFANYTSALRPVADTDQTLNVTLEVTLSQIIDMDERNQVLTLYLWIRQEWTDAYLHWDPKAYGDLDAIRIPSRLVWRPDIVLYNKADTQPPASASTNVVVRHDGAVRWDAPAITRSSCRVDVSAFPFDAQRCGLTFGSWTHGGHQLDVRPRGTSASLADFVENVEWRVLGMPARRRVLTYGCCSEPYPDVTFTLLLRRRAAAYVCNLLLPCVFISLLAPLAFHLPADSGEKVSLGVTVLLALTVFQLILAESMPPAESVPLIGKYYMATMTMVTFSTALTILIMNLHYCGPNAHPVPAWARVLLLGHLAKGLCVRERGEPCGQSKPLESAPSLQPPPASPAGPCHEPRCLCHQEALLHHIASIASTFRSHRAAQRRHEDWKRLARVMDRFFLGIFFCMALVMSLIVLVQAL

Oocyte = assay: Inhibition of human alpha9 rat alpha10 nAChR expressed in Xenopus oocytes assessed as inhibition of acetylcholine-induced currents at 100 nM after 300 secs by two-electrode voltage clamp assay; type: cell-based

Structure (SMILES): CC[C@H](C)[C@@H]1NC(=O)[C@H](CCC(=O)O)NC(=O)[C@@H]2CCCN2C(=O)[C@H](Cc2cnc[nH]2)NC(=O)[C@H](CC(=O)O)NC(=O)[C@H](Cc2ccc(O)cc2)NC(=O)[C@H](CC(N)=O)NC(=O)[C@@H]2CSSC[C@H](NC(=O)CN)C(=O)N[C@@H](CSSC[C@@H](C(=O)O)NC1=O)C(=O)N[C@@H](CO)C(=O)N[C@@H](CC(=O)O)C(=O)N1CCC[C@H]1C(=O)N[C@@H](CCCNC(=N)N)C(=O)N2
- Ratio IC50 [1]: 14
- IC50 [2]: 975 nM
- IC50 [3]: 70 nM

Structure (SMILES): CC[C@H](C)[C@@H]1NC(=O)[C@H](CCC(=O)O)NC(=O)[C@@H]2CCCN2C(=O)[C@H](Cc2cnc[nH]2)NC(=O)[C@H](CC(=O)O)NC(=O)[C@H](Cc2ccccc2)NC(=O)[C@H](CC(N)=O)NC(=O)[C@@H]2CSSC[C@H](NC(=O)CN)C(=O)N[C@@H](CSSC[C@@H](C(=O)O)NC1=O)C(=O)N[C@@H](CO)C(=O)N[C@@H](CC(=O)O)C(=O)N1CCC[C@H]1C(=O)N[C@@H](CCCNC(=N)N)C(=O)N2 (H-GCCSDPRCNFDHPEIC-OH; disulfide 2-8, 3-16)
- IC50 [2]: 763 nM
- inhibition (Oocyte): 10%
- IC50 [3]: 500 nM

Structure (SMILES): CC[C@H](C)[C@@H]1NC(=O)[C@H](CCC(=O)O)NC(=O)[C@@H]2CCCN2C(=O)[C@H](Cc2cnc[nH]2)NC(=O)[C@H](CC(=O)O)NC(=O)[C@H](Cc2c[nH]c3ccccc23)NC(=O)[C@H](CC(N)=O)NC(=O)[C@@H]2CSSC[C@H](NC(=O)CN)C(=O)N[C@@H](CSSC[C@@H](C(=O)O)NC1=O)C(=O)N[C@@H](CO)C(=O)N[C@@H](CC(=O)O)C(=O)N1CCC[C@H]1C(=O)N[C@@H](CCCNC(=N)N)C(=O)N2 (H-GCCSDPRCNWDHPEIC-OH; disulfide 2-8, 3-16)
- IC50 [2]: 33 nM
- inhibition (Oocyte): 80%
- IC50 [3]: 43 nM
